# Legend:
# [1] = system: Zea mays; experiment: Pre-emergence herbicidal effect and crop plant compatibility; assay type: in vivo; conditions: 3 weeks
# Description: (§1) Seeds of monocotyledonous and dicotyledonous weed plants and crop plants are laid out in wood-fiber pots in sandy loam and covered with soil. The compounds of the invention, formulated in the form of wettable powders (WP) or as emulsion concentrates (EC), are then applied to the surface of the covering soil as aqueous suspension or emulsion at a water application rate equating to 600 to 800 L/ha with addition of 0.2% wetting agent.
# (§2) After the treatment, the pots are placed in a greenhouse and kept under good growth conditions for the trial plants. The damage to the trial plants is scored visually after a trial duration of 3 weeks by comparison with untreated controls (herbicidal activity in percent (%): 100% efficacy=the plants have died, 0% efficacy=like control plants).
# [2] = system: Triticum aestivum (spring); experiment: as above; assay type: in vivo; conditions: 3 weeks
# Description: as §1, §2
# [3] = system: Matricaria inodora; experiment: Pre-emergence herbicidal effect; assay type: in vivo; conditions: 3 weeks
# Description: as §1, §2
# [4] = system: Veronica persica; experiment: Pre-emergence herbicidal effect; assay type: in vivo; conditions: 3 weeks
# Description: as §1, §2
# [5] = system: Amaranthus retroflexus; experiment: Pre-emergence herbicidal effect; assay type: in vivo; conditions: 3 weeks
# Description: as §1, §2
# [6] = system: Polygonum convolvulus; experiment: Pre-emergence herbicidal effect; assay type: in vivo; conditions: 1280 g/ha, 3 weeks
# Description: as §1, §2
# [7] = system: Stellaria media; experiment: Pre-emergence herbicidal effect; assay type: in vivo; conditions: 3 weeks
# Description: as §1, §2
# [8] = system: Viola tricolor; experiment: Pre-emergence herbicidal effect; assay type: in vivo; conditions: 3 weeks
# Description: as §1, §2
# [9] = logp (HCOOH), physicochemical characterization
# [10] = system: Oryza sativa; experiment: Pre-emergence herbicidal effect and crop plant compatibility; assay type: in vivo; conditions: 320 g/ha, 3 weeks
# Description: as §1, §2
# [11] = system: Setaria viridis; experiment: Pre-emergence herbicidal effect; assay type: in vivo; conditions: 1280 g/ha, 3 weeks
# Description: as §1, §2
compound,measurement,setting,value
CC(=O)c1cnc(NC2c3ccccc3CCC2C)nc1 (racemic) [1.20],ZEAMX herbicidal activity in percent,[1]; 320 g/ha,0%
same,ZEAMX herbicidal activity in percent,[1]; 1280 g/ha,0%
same,TRZAS herbicidal activity in percent,[2]; 320 g/ha,20%
same,MATIN herbicidal activity in percent,[3]; 320 g/ha,90%
same,MATIN herbicidal activity in percent,[3]; 1280 g/ha,100%
same,VERPE herbicidal activity in percent,[4]; 320 g/ha,100%
same,VERPE herbicidal activity in percent,[4]; 1280 g/ha,100%
same,AMARE herbicidal activity in percent,[5]; 320 g/ha,90%
same,AMARE herbicidal activity in percent,[5]; 1280 g/ha,100%
same,POLCO herbicidal activity in percent,[6],100%
same,STEME herbicidal activity in percent,[7]; 320 g/ha,100%
same,STEME herbicidal activity in percent,[7]; 1280 g/ha,100%
same,VIOTR herbicidal activity in percent,[8]; 320 g/ha,90%
same,VIOTR herbicidal activity in percent,[8]; 1280 g/ha,100%
same,logp (HCOOH),[9],"oily; logp (HCOOH): 2.93; 1H-NMR (CDCl3, 400 MHZ, δ in ppm): 1.05 (d, 3H, CH3);"
CC(=O)c1c(C)nc(NC2CCSc3c(F)cccc32)nc1C (racemic) [1.65],logp (HCOOH),[9],"solid; logp (HCOOH): 2.93; 1H-NMR (CDCl3, 400 MHZ, δ in ppm): 2.20 (m, 1H, 1H"
COc1ccc2c(c1)CCC2Nc1ncc(C(C)=O)c(C)n1 (racemic) [1.92],ZEAMX herbicidal activity in percent,[1]; 80 g/ha,20%
same,ZEAMX herbicidal activity in percent,[1]; 320 g/ha,20%
same,ORYSA herbicidal activity in percent,[10],0%
same,TRZAS herbicidal activity in percent,[2]; 80 g/ha,0%
same,TRZAS herbicidal activity in percent,[2]; 320 g/ha,0%
same,MATIN herbicidal activity in percent,[3]; 320 g/ha,100%
same,VERPE herbicidal activity in percent,[4]; 80 g/ha,100%
same,VERPE herbicidal activity in percent,[4]; 320 g/ha,100%
same,AMARE herbicidal activity in percent,[5]; 80 g/ha,100%
same,AMARE herbicidal activity in percent,[5]; 320 g/ha,100%
same,VIOTR herbicidal activity in percent,[8]; 320 g/ha,100%
Cc1ccc2c(c1)[C@H](Nc1ncc3c(n1)CCCC3=O)CC2 [2.41],logp (HCOOH),[9],"oily; logp (HCOOH): 3.21; 1H-NMR (CDCl3, 400 MHZ, δ in ppm): 1.95 (m, 1H, 1H"
O=C1CCCc2nc(N[C@@H]3CCc4ccccc43)ncc21 [2.38],logp (HCOOH),[9],"oily; logp (HCOOH): 4.84; 1H-NMR (CDCl3, 400 MHZ, δ in ppm): 1.85 (m, 1H, 1H"
O=C1CCCc2nc(NC3CCSc4ccc(F)cc43)ncc21 (racemic) [2.114],logp (HCOOH),[9],"oily; logp (HCOOH): 2.77; 1H-NMR (CDCl3, 400 MHZ, δ in ppm): 2.10 (m, 2H, 2H"
CC(=O)c1cnc(N[C@@H]2CCc3c(C)cc(C)cc32)nc1 [1.95],logp (HCOOH),[9],"solid; m.p.: 153.0° C.; logp (HCOOH): 3.45; 1H-NMR (CDCl3, 400 MHZ, δ in ppm):"
COc1ccc2c(c1)CCCC2Nc1ncc2c(n1)CCCC2=O (racemic) [2.109],logp (HCOOH),[9],"solid; m.p.: 151.3° C.; logp (HCOOH): 2.83; 1H-NMR (CDCl3, 400 MHZ, δ in ppm):"
CC(C)c1ccc2c(c1)C(Nc1ncc3c(n1)CCCC3=O)CC2 (racemic) [2.107],logp (HCOOH),[9],"oily; logp (HCOOH): 3.83; 1H-NMR (CDCl3, 400 MHZ, δ in ppm): 1.20 (d, 6H,"
COc1ccc2c(c1)OC(C)(C)CC2Nc1ncc(C(C)=O)c(C)n1 (racemic) [1.96],logp (HCOOH),[9],"solid; m.p.: 183.5° C.; logp (HCOOH): 3.12; 1H-NMR (CDCl3, 400 MHZ, δ in ppm):"
O=C1CCCc2nc(NC3CCOc4c(Cl)cccc43)ncc21 (racemic) [2.84],logp (HCOOH),[9],"oily; logp (HCOOH): 2.75; 1H-NMR (CDCl3, 400 MHZ, δ in ppm): 2.15 (m, 3H, 2H"
CCC1Cc2ccc(C)cc2C1Nc1ncc2c(n1)CCCC2=O (racemic) [2.106],logp (HCOOH),[9],"oily; logp (HCOOH): 3.90; 1H-NMR (CDCl3, 400 MHZ, δ in ppm): 0.95 (t, 3H, CH3);"
CC1Cc2cc(Cl)ccc2C1Nc1ncc2c(n1)CCCC2=O (racemic) [2.108],logp (HCOOH),[9],"oily; logp (HCOOH): 3.58; 1H-NMR (CDCl3, 400 MHZ, δ in ppm): 1.25 (d, 3H, CH3);"
CC(=O)c1cnc(N[C@H]2c3cc(C)ccc3C[C@@H]2C)nc1 [1.10],chromatographic logP,[9]; HCOOH,2.99
CC1CCC(Nc2ncc3c(n2)CCCC3=O)c2ccccc21 (racemic) [2.111],logp (HCOOH),[9],"oily; logp (HCOOH): 3.37; 1H-NMR (CDCl3, 400 MHZ, δ in ppm): 1.35 (d, 3H, 3H"
Cc1ccc2c(c1)[C@H](Nc1ncc3c(n1)CC(c1ccccc1F)CC3=O)[C@@H](C)C2 (some centres unmarked) [2.50],ZEAMX herbicidal activity in percent,[1]; 320 g/ha,0%
same,ZEAMX herbicidal activity in percent,[1]; 1280 g/ha,0%
same,VERPE herbicidal activity in percent,[4]; 320 g/ha,100%
same,VERPE herbicidal activity in percent,[4]; 1280 g/ha,100%
same,AMARE herbicidal activity in percent,[5]; 1280 g/ha,100%
same,STEME herbicidal activity in percent,[7]; 320 g/ha,100%
same,STEME herbicidal activity in percent,[7]; 1280 g/ha,100%
same,VIOTR herbicidal activity in percent,[8]; 320 g/ha,90%
same,VIOTR herbicidal activity in percent,[8]; 1280 g/ha,90%
same,SETVI herbicidal activity in percent,[11],80%
same,logp (HCOOH),[9],"oily; logp (HCOOH): 4.86; 1H-NMR (CDCl3, 400 MHZ, δ in ppm): 1.25 (t, 3H, CH3);"

# Source: patent US10183914B2 (BAYER CROPSCIENCE AKTIENGESELLSCHAFT, priority 2014, dated 2019)
